In the test the test system is OCI-Ly10 cells. Briefly: Proliferation-Inhibitory Test Against Diffuse Large-Cell B-Cell Lymphoma OCI-Ly10 Strain. It is filed as cell-based. The settings on record: Homo sapiens, 96 hours, alamarBlue. The method, then: OCI-Ly10 cells were cultured in IMDM medium (Iscove's Modified Dulbecco's Medium, Manufactured by Thermo Fisher Scientific Inc., hereinafter “medium”) containing 20% Fetal bovine serum and 1% penicillin-streptomycin (Nacalai Tesque, Inc.) in a 5% CO2 incubator. OCI-Ly10 cells were seeded to 96-well plate (20000 cells/well), compounds diluted with medium were added with final concentrations of 0.9 nM to 30000 nM (Final DMSO concentration, 0.3%), incubated for 96 hours and alamorBlue reagent (Thermo Fisher Scientific Inc.) was added.
Background: Resazurin is reduced to fluorescent resorufin, in cell work by metabolically active cells.

This note sets out measurements from patent US10793575B2, “Oxoisoquinoline derivatives” (CARNA BIOSCIENCES, INC., priority 2016, dated 2020).

As to `COc1cc(-c2cc3c(-c4cccc(-n5ccc6cc(C7CC7)cc(F)c6c5=O)c4CO)nc(N)nc3[nH]2)ccn1` [Example 49, 2-{3-[2-amino-6-(2-methoxypyridin-4-yl)-7H-pyrrolo[2,3-d]pyrimidin-4-yl]-2-(hydroxymethyl)phenyl}-6-cyclopropyl-8-fluoroisoquinolin-1(2H)-one], the IC50 – broadly, the concentration at which inhibition is half-maximal – was 88 nM.
In turn, `Nc1nc(-c2cccc(-n3ccc4cc(C5CC5)cc(F)c4c3=O)c2CO)c2cc(-c3ccc(CN4CCN(CC(F)(F)F)CC4)cc3)[nH]c2n1` [Example 79, 2-{3-[2-amino-6-(4-{[4-(2,2,2-trifluoroethyl)piperazin-1-yl]methyl}phenyl)-7H-pyrrolo[2,3-d]pyrimidin-4-yl]-2-(hydroxymethyl)phenyl}-6-cyclopropyl-8-fluoroisoquinolin-1(2H)-one] gave a half-maximal inhibitory concentration (IC50) of 30 nM.
With `CC(C)S(=O)(=O)N1CC=C(c2cc3c(-c4cccc(-n5ccc6cc(C7CC7)cc(F)c6c5=O)c4CO)nc(N)nc3[nH]2)CC1` [Example 90, 2-(3-{2-amino-6-[1-(isopropylsulfonyl)-1,2,3,6-tetrahydropyridin-4-yl]-7H-pyrrolo[2,3-d]pyrimidin-4-yl}-2-(hydroxymethyl)phenyl)-6-cyclopropyl-8-fluoroisoquinolin-1(2H)-one] the figure was 13 nM; with `CC1CN(Cc2ccc(-c3cc4c(-c5cccc(-n6ccc7cc(C8CC8)cc(F)c7c6=O)c5CO)nc(N)nc4[nH]3)cc2)CC(C)O1` (stereo not drawn) [Example 76, 2-[3-(2-amino-6-{4-[(2,6-dimethylmorpholino)methyl]phenyl}-7H-pyrrolo[2,3-d]pyrimidin-4-yl)-2-(hydroxymethyl)phenyl]-6-cyclopropyl-8-fluoroisoquinolin-1(2H)-one], 47 nM; with `Cn1ccc(-c2cc3c(-c4cccc(-n5ccc6cc(C7CC7)cc(F)c6c5=O)c4CO)nc(N)nc3[nH]2)n1` [Example 78, 2-{3-[2-amino-6-(1-methyl-1H-pyrazol-3-yl)-7H-pyrrolo[2,3-d]pyrimidin-4-yl]-2-(hydroxymethyl)phenyl}-6-cyclopropyl-8-fluoroisoquinolin-1(2H)-one], 50 nM.
As for `Nc1nc(-c2cccc(-n3ccc4cc(C5CC5)cc(F)c4c3=O)c2CO)c2cc(-c3cnn(-c4ccccc4)c3)[nH]c2n1` [Example 64, 2-{3-[2-amino-6-(1-phenyl-1H-pyrazol-4-yl)-7H-pyrrolo[2,3-d]pyrimidin-4-yl]-2-(hydroxymethyl)phenyl}-6-cyclopropyl-8-fluoroisoquinolin-1(2H)-one], the figure is 642 nM.
With `Nc1nc(-c2cccc(-n3ccc4cc(C5CC5)cc(F)c4c3=O)c2CO)c2cc(-c3ccc(CN4CCC(O)CC4)cc3)[nH]c2n1` [Example 73, 2-[3-(2-amino-6-{4-[(4-hydroxypiperidin-1-yl)methyl)phenyl}-7H-pyrrolo[2,3-d]pyrimidin-4-yl)-2-(hydroxymethyl)phenyl]-6-cyclopropyl-8-fluoroisoquinolin-1(2H)-one] the figure was 11 nM; with `Nc1nc(-c2cccc(-n3ccc4cc(C5CC5)cc(F)c4c3=O)c2CO)c2cc(C3=CCN(C(=O)N4CCOCC4)CC3)[nH]c2n1` [Example 70, 2-(3-{2-amino-6-[1-(morpholine-4-carbonyl)-1,2,3,6-tetrahydropyridin-4-yl]-7H-pyrrolo[2,3-d]pyrimidin-4-yl}-2-(hydroxymethyl)phenyl)-6-cyclopropyl-8-fluoroisoquinolin-1(2H)-one], 4 nM; with `CCn1cc(-c2cc3c(-c4cccc(-n5ccc6cc(C7CC7)cc(F)c6c5=O)c4CO)nc(N)nc3[nH]2)cn1` [Example 62, 2-{3-[2-amino-6-(1-ethyl-1H-pyrazol-4-yl)-7H-pyrrolo[2,3-d]pyrimidin-4-yl]-2-(hydroxymethyl)phenyl}-6-cyclopropyl-8-fluoroisoquinolin-1(2H)-one], 15 nM.
Take `Nc1nc(-c2cccc(-n3ccc4cc(C5CC5)cc(F)c4c3=O)c2CO)c2cc(-c3ccc(N4CCOCC4)nc3)[nH]c2n1` [Example 48, 2-{3-[2-amino-6-(6-morpholinopyridin-3-yl)-7H-pyrrolo[2,3-d]pyrimidin-4-yl]-2-(hydroxymethyl)phenyl}-6-cyclopropyl-8-fluoroisoquinolin-1(2H)-one]: the IC50 was 54 nM.
With `Nc1nc(-c2cccc(-n3ccc4cc(C5CC5)cc(F)c4c3=O)c2CO)c2cc(-c3ccc(F)cn3)[nH]c2n1` [Example 45, 2-{3-[2-amino-6-(5-fluoropyridin-2-yl)-7H-pyrrolo[2,3-d]pyrimidin-4-yl]-2-(hydroxymethyl)phenyl}-6-cyclopropyl-8-fluoroisoquinolin-1(2H)-one] the figure was 134 nM; with `CC(=O)N1CCN(Cc2ccc(-c3cc4c(-c5cccc(-n6ccc7cc(C8CC8)cc(F)c7c6=O)c5CO)nc(N)nc4[nH]3)cc2)CC1` [Example 75, 2-[3-(6-{4-[(4-acetylpiperazin-1-yl)methyl]phenyl}-2-amino-7H-pyrrolo[2,3-d]pyrimidin-4-yl)-2-(hydroxymethyl)phenyl]-6-cyclopropyl-8-fluoroisoquinolin-1(2H)-one], 10 nM.
With `CNc1ccc(-c2cc3c(-c4cccc(-n5ccc6cc(C7CC7)cc(F)c6c5=O)c4CO)nc(N)nc3[nH]2)cn1` [Example 47, 2-(3-{2-amino-6-[6-(methylamino)pyridin-3-yl]-7H-pyrrolo[2,3-d]pyrimidin-4-yl}-2-(hydroxymethyl)phenyl)-6-cyclopropyl-8-fluoroisoquinolin-1(2H)-one] the figure was 204 nM.
With `Nc1nc(-c2cccc(-n3ccc4cc(C5CC5)cc(F)c4c3=O)c2CO)c2cc(-c3ccc(CN4CCSC4)cc3)[nH]c2n1` [Example 67, 2-(3-{2-amino-6-[4-(thiazolidin-3-ylmethyl)phenyl]-7H-pyrrolo[2,3-d]pyrimidin-4-yl)-2-(hydroxymethyl)phenyl}-6-cyclopropyl-8-fluoroisoquinolin-1(2H)-one] the figure was 82 nM; with `COC1CCN(Cc2ccc(-c3cc4c(-c5cccc(-n6ccc7cc(C8CC8)cc(F)c7c6=O)c5CO)nc(N)nc4[nH]3)cc2)CC1` [Example 74, 2-[3-(2-amino-6-{4-[(4-methoxypiperidin-1-yl)methyl]phenyl}-7H-pyrrolo[2,3-d]pyrimidin-4-yl)-2-(hydroxymethyl)phenyl]-6-cyclopropyl-8-fluoroisoquinolin-1(2H)-one], 13 nM; with `Nc1nc(-c2cccc(-n3ccc4cc(C5CC5)cc(F)c4c3=O)c2CO)c2cc(-c3cncc(F)c3)[nH]c2n1` [Example 46, 2-{3-[2-amino-6-(5-fluoropyridin-3-yl)-7H-pyrrolo[2,3-d]pyrimidin-4-yl]-2-(hydroxymethyl)phenyl}-6-cyclopropyl-8-fluoroisoquinolin-1(2H)-one], 564 nM.
`Cc1ccc(-c2cc3c(-c4cccc(-n5ccc6cc(C7CC7)cc(F)c6c5=O)c4CO)nc(N)nc3[nH]2)cc1` [Example 56, 2-{3-[2-amino-6-(p-tolyl)-7H-pyrrolo[2,3-d]pyrimidin-4-yl]-2-(hydroxymethyl)phenyl}-6-cyclopropyl-8-fluoroisoquinolin-1(2H)-one] showed an IC50 of 412 nM.
As for `CC1(C)CCCN(Cc2ccc(-c3cc4c(-c5cccc(-n6ccc7cc(C8CC8)cc(F)c7c6=O)c5CO)nc(N)nc4[nH]3)cc2)C1` [Example 80, 2-[3-(2-amino-6-{4-[(3,3-dimethylpiperidin-1-yl)methyl]phenyl}-7H-pyrrolo[2,3-d]pyrimidin-4-yl)-2-(hydroxymethyl)phenyl]-6-cyclopropyl-8-fluoroisoquinolin-1(2H)-one], the figure is 70 nM; as for `CC(C)(C)n1cc(-c2cc3c(-c4cccc(-n5ccc6cc(C7CC7)cc(F)c6c5=O)c4CO)nc(N)nc3[nH]2)cn1` [Example 72, 2-(3-{2-amino-6-[1-(tert-butyl)-1H-pyrazol-4-yl]-7H-pyrrolo[2,3-d]pyrimidin-4-yl}-2-(hydroxymethyl)phenyl)-6-cyclopropyl-8-fluoroisoquinolin-1(2H)-one], 127 nM; as for `CN1CCN(Cc2ccc(-c3cc4c(-c5cccc(-n6ccc7cc(C8CC8)cc(F)c7c6=O)c5CO)nc(N)nc4[nH]3)cc2)CC1=O` [Example 55, 2-[3-(2-amino-6-{4-[(4-methyl-3-oxopiperazin-1-yl)methyl]phenyl}-7H-pyrrolo[2,3-d]pyrimidin-4-yl)-2-(hydroxymethyl)phenyl]-6-cyclopropyl-8-fluoroisoquinolin-1(2H)-one], 13 nM.
Regarding `Nc1nc(-c2cccc(-n3ccc4cc(C5CC5)cc(F)c4c3=O)c2CO)c2cc(C3=CCSCC3)[nH]c2n1` [Example 82, 2-{3-[2-amino-6-(3,6-dihydro-2H-thiopyran-4-yl)-7H-pyrrolo[2,3-d]pyrimidin-4-yl]-2-(hydroxymethyl)phenyl}-6-cyclopropyl-8-fluoroisoquinolin-1(2H)-one], the IC50 stood at 24 nM.
`Nc1nc(-c2cccc(-n3ccc4cc(C5CC5)cc(F)c4c3=O)c2CO)c2cc(-c3cnn(Cc4ccccc4)c3)[nH]c2n1` [Example 58, 2-{3-[2-amino-6-(1-benzyl-1H-pyrazol-4-yl)-7H-pyrrolo[2,3-d]pyrimidin-4-yl]-2-(hydroxymethyl)phenyl}-6-cyclopropyl-8-fluoroisoquinolin-1(2H)-one]: the IC50 is 27 nM.
As for `Nc1nc(-c2cccc(-n3ccc4cc(C5CC5)cc(F)c4c3=O)c2CO)c2cc(-c3ccc(CN4CCC(F)(F)CC4)cc3)[nH]c2n1` [Example 77, 2-[3-(2-amino-6-{4-[(4,4-difluoropiperidin-1-yl)methyl]phenyl}-7H-pyrrolo[2,3-d]pyrimidin-4-yl)-2-(hydroxymethyl)phenyl]-6-cyclopropyl-8-fluoroisoquinolin-1(2H)-one], the figure is 62 nM; as for `Nc1nc(-c2cccc(-n3ccc4cc(C5CC5)cc(F)c4c3=O)c2CO)c2cc(C3=CCN(C(=O)CN4CCOCC4)CC3)[nH]c2n1` [Example 86, 2-(3-{2-amino-6-[1-(2-morpholinoacetyl)-1,2,3,6-tetrahydropyridin-4-yl]-7H-pyrrolo[2,3-d]pyrimidin-4-yl}-2-(hydroxymethyl)phenyl)-6-cyclopropyl-8-fluoroisoquinolin-1(2H)-one], 13 nM.
